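Each compound was tested at five concentrations against cells in 96-well plates for 48 hours. TGI is the concentration that stops growth completely.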
Columns and labels:
Test in all cases: inhibition of tumour cell growth, NCI panel, 48 h
786-0 renal = test system: 786-0 renal
A498 renal = test system: A498 renal
A549 NSCLC = test system: A549 NSCLC
ACHN renal = test system: ACHN renal
CAKI-1 renal = test system: CAKI-1 renal
CCRF-CEM leukemia = test system: CCRF-CEM leukemia
COLO 205 colon = test system: COLO 205 colon
DLD-1 colon = test system: DLD-1 colon
DMS 114 small cell lung = test system: DMS 114 small cell lung
DMS 273 small cell lung = test system: DMS 273 small cell lung
EKVX NSCLC = test system: EKVX NSCLC
HCC-2998 colon = test system: HCC-2998 colon
HCT-116 colon = test system: HCT-116 colon
HCT-15 colon = test system: HCT-15 colon
HL-60(TB) leukemia = test system: HL-60(TB) leukemia
HOP-18 NSCLC = test system: HOP-18 NSCLC
HOP-62 NSCLC = test system: HOP-62 NSCLC
HOP-92 NSCLC = test system: HOP-92 NSCLC
HT29 colon = test system: HT29 colon
IGROV1 ovarian = test system: IGROV1 ovarian
K-562 leukemia = test system: K-562 leukemia
KM12 colon = test system: KM12 colon
KM20L2 colon = test system: KM20L2 colon
LOX IMVI melanoma = test system: LOX IMVI melanoma
LXFL 529 NSCLC = test system: LXFL 529 NSCLC
M14 melanoma = test system: M14 melanoma
M19-MEL melanoma = test system: M19-MEL melanoma
MALME-3M melanoma = test system: MALME-3M melanoma
MOLT-4 leukemia = test system: MOLT-4 leukemia
NCI-H226 lung = test system: NCI-H226 lung
NCI-H23 lung = test system: NCI-H23 lung
NCI-H460 lung = test system: NCI-H460 lung
NCI-H522 lung = test system: NCI-H522 lung
OVCAR-3 ovarian = test system: OVCAR-3 ovarian
OVCAR-4 ovarian = test system: OVCAR-4 ovarian
OVCAR-5 ovarian = test system: OVCAR-5 ovarian
OVCAR-8 ovarian = test system: OVCAR-8 ovarian
RPMI-8226 leukemia = test system: RPMI-8226 leukemia
RXF 393 renal = test system: RXF 393 renal
SF-268 CNS = test system: SF-268 CNS
SF-295 CNS = test system: SF-295 CNS
SF-539 CNS = test system: SF-539 CNS
SK-MEL-2 melanoma = test system: SK-MEL-2 melanoma
SK-MEL-28 melanoma = test system: SK-MEL-28 melanoma
SK-MEL-5 melanoma = test system: SK-MEL-5 melanoma
SK-OV-3 ovarian = test system: SK-OV-3 ovarian
SN12C renal = test system: SN12C renal
SNB-19 CNS = test system: SNB-19 CNS
SNB-75 CNS = test system: SNB-75 CNS
SNB-78 CNS = test system: SNB-78 CNS
SR leukemia = test system: SR leukemia
SW-620 colon = test system: SW-620 colon
TK-10 renal = test system: TK-10 renal
U251 CNS = test system: U251 CNS
UACC-257 melanoma = test system: UACC-257 melanoma
UACC-62 melanoma = test system: UACC-62 melanoma
UO-31 renal = test system: UO-31 renal
XF 498 CNS = test system: XF 498 CNS

Compound: N#CC(=Nc1ccccc1N(C(=O)c1ccccc1)C(=O)c1ccccc1)c1ccccc1
- TGI (786-0 renal): > 100 µM
- TGI (A498 renal): > 100 µM
- TGI (A549 NSCLC): > 48.8 µM
- TGI (ACHN renal): > 100 µM
- TGI (CAKI-1 renal): > 100 µM
- TGI (CCRF-CEM leukemia): > 31.2 µM
- TGI (COLO 205 colon): > 64.6 µM
- TGI (DLD-1 colon): > 100 µM
- TGI (DMS 114 small cell lung): > 48.8 µM
- TGI (DMS 273 small cell lung): > 100 µM
- TGI (EKVX NSCLC): > 100 µM
- TGI (HCC-2998 colon): > 100 µM
- TGI (HCT-116 colon): > 44.8 µM
- TGI (HCT-15 colon): > 90.3 µM
- TGI (HL-60(TB) leukemia): > 41.1 µM
- TGI (HOP-18 NSCLC): > 100 µM
- TGI (HOP-62 NSCLC): > 100 µM
- TGI (HOP-92 NSCLC): > 93.3 µM
- TGI (HT29 colon): > 100 µM
- TGI (IGROV1 ovarian): > 100 µM
- TGI (K-562 leukemia): > 60.9 µM
- TGI (KM12 colon): > 70.9 µM
- TGI (KM20L2 colon): > 100 µM
- TGI (LOX IMVI melanoma): > 100 µM
- TGI (LXFL 529 NSCLC): > 100 µM
- TGI (M14 melanoma): > 100 µM
- TGI (M19-MEL melanoma): > 100 µM
- TGI (MALME-3M melanoma): > 100 µM
- TGI (MOLT-4 leukemia): > 100 µM
- TGI (NCI-H226 lung): > 100 µM
- TGI (NCI-H23 lung): > 100 µM
- TGI (NCI-H460 lung): > 100 µM
- TGI (NCI-H522 lung): > 100 µM
- TGI (OVCAR-3 ovarian): > 100 µM
- TGI (OVCAR-4 ovarian): > 76.2 µM
- TGI (OVCAR-5 ovarian): > 100 µM
- TGI (OVCAR-8 ovarian): > 100 µM
- TGI (RPMI-8226 leukemia): > 81.4 µM
- TGI (RXF 393 renal): > 39.3 µM
- TGI (SF-268 CNS): > 100 µM
- TGI (SF-295 CNS): > 100 µM
- TGI (SF-539 CNS): > 100 µM
- TGI (SK-MEL-2 melanoma): > 100 µM
- TGI (SK-MEL-28 melanoma): > 100 µM
- TGI (SK-MEL-5 melanoma): > 100 µM
- TGI (SK-OV-3 ovarian): > 100 µM
- TGI (SN12C renal): > 100 µM
- TGI (SNB-19 CNS): > 54.9 µM
- TGI (SNB-75 CNS): > 100 µM
- TGI (SNB-78 CNS): > 100 µM
- TGI (SR leukemia): 24.2 µM
- TGI (SW-620 colon): > 62.2 µM
- TGI (TK-10 renal): > 100 µM
- TGI (U251 CNS): > 100 µM
- TGI (UACC-257 melanoma): > 100 µM
- TGI (UACC-62 melanoma): > 100 µM
- TGI (UO-31 renal): > 100 µM
- TGI (XF 498 CNS): > 100 µM
